Source: PubChem BioAssay AID1645848
In brackets after ≈: the same amount, converted by molar mass.

Settings: buffer; pH 7.4; 6.0 h; 150.0 µM

SMILES | solubility kinetic
CC1=C(C(=O)Nc2ccccc2Cl)C(c2ccccc2Br)N=C(Nc2nc3ccccc3o2)N1 (stereo not given) | < 1 µg/mL
CSc1cc2c(s1)c1cnn(Cc3cccc(N)c3)c(=O)c1n2C | < 1 µg/mL
COC(=O)c1ccnc(-c2cc(C(=O)NCCc3ccccc3)ccn2)c1 | 5.36 µg/mL (≈ 14.8 µM)
CCc1ccc(-n2c(=O)c3cccnc3n2CC(=O)Nc2cc(OC)ccc2OC)cc1 | < 1 µg/mL
CCCNc1oc(-c2cccc3ccccc23)nc1C#N | < 1 µg/mL
CSc1ccc(-c2cnc(N3CCC(C(N)=O)CC3)s2)cc1 | < 1 µg/mL
CN([C@@H](Cc1ccc(O[S+](=O)([O-])c2cccc3cnccc23)cc1)C(=O)N1CCN(C(=O)OCc2ccccc2)CC1)[S+](=O)([O-])c1cccc2cnccc12 | 1.26 µg/mL (≈ 1.61 µM)
CCc1ccccc1-n1c(SCC(=O)Nc2ccc(C)cc2)nc2n[nH]c(C)c2c1=N | < 1 µg/mL
COc1ccccc1S(=O)(=O)Nc1cnccc1C(=O)Nc1nc(-c2ccccc2)cs1 | 42.6 µg/mL (≈ 91.4 µM)
CCN(CC)CCOc1ccc2c(=O)c3ccc(Cl)cc3n(CCN(CC)CC)c2c1 | > 66 µg/mL
CN(C)c1cccc(-c2ncnc(N3CCC(C(N)=O)CC3)n2)c1 | > 48 µg/mL
Cc1ccc(S(=O)(=O)Nc2ccc(C(=O)Nc3ncc(-c4ccccc4)s3)cc2)cc1 | < 1 µg/mL
COC(=O)[C@]12CCC(C)(C)C[C@H]1[C@H]1C(=O)C=C3[C@@]4(C)C=C(C#N)C(=O)C(C)(C)[C@@H]4CC[C@@]3(C)[C@]1(C)CC2 | 1.99 µg/mL (≈ 3.93 µM)
CC(=O)Nc1cccc(-c2csc(Nc3cc(C)ccn3)n2)c1 | < 1 µg/mL
COc1cccc(CNc2ccc(S(=O)(=O)Nc3cccc4ccccc34)cc2)c1O | < 1 µg/mL
COc1cccc(NC(=O)c2cc(-c3ccc(C)c(C)c3)nc3ccccc23)c1 | < 1 µg/mL
C[C@@]12O[C@@H](C[C@]1(O)CO)n1c3ccccc3c3c4c(c5c6ccccc6n2c5c31)CNC4=O | 15.2 µg/mL (≈ 34.6 µM)
CC(C)(C)c1ccc(-n2cnc3cc(C(=O)N4CCCCC4)ccc32)cc1 | < 1 µg/mL
Cc1cc(F)ccc1-c1nc(NCCN=C(N)NC#N)nc2c1ccc(=O)n2-c1c(F)cccc1F | 39.5 µg/mL (≈ 80.2 µM)
O=C1CCCC2=C1C(C1CCCCC1Cl)N=C(NC1NC3CCCCC3S1)N2 (stereo not given) | < 1 µg/mL
Cc1ccc(-n2ncc3c(NCCCn4ccnc4)ncnc32)cc1Cl | 4.07 µg/mL (≈ 11.1 µM)
Cc1cc(-c2nnc3n2CCCCC3)c(C)n1-c1cccc2ccccc12 | 15.6 µg/mL (≈ 43.8 µM)
CCc1ccc(-n2nnc(-c3nsc(NC(=O)c4ccccc4Cl)n3)c2C)cc1 | < 1 µg/mL
CCc1nnc(NC(=O)c2nc(S(=O)(=O)Cc3ccc(C)cc3)ncc2Cl)s1 | > 65 µg/mL

SMILES | solubility kinetic
CCOc1ccc(-c2nnc(SCC(=O)NCc3ccccc3Cl)o2)cc1 | < 1 µg/mL
Cc1c([C@@H](C)C2NC[C@H](C)C[C@@H]2O)ccc2c1C[C@@H]1[C@H]2CC=C2C[C@@H](O)CC[C@@]21C (stereo not given in full) | 40.9 µg/mL (≈ 99.7 µM)
CC(C)Oc1ccc(-c2csc(N3CCC(C(N)=O)CC3)n2)cc1 | 11.7 µg/mL (≈ 33.8 µM)
C=CC(=O)N1CCCN(c2cc(NCCC(=O)O)nc(-c3ccccn3)n2)CC1 | > 59 µg/mL
O=C1Nc2ccccc2/C1=C\c1cc(Br)c(O)c(Br)c1 | > 58 µg/mL
c1ccc(Nc2cc3c(cn2)CN(Cc2cccs2)CCN3)cc1 | 42.8 µg/mL (≈ 127 µM)
Nc1ccc(S(=O)(=O)Nc2cnccc2C(=O)Nc2nc(-c3ccccc3)cs2)cc1 | 43.2 µg/mL (≈ 95.7 µM)
Cc1ccc(-n2nc3c(=O)n(CCCC(=O)NCc4ccccc4F)nc(C)c3c2C)cc1 | 4.17 µg/mL (≈ 9.32 µM)
Cc1ccc(S(=O)(=O)Nc2cnccc2C(=O)Nc2ccc(N3CCOCC3)cc2)cc1 | > 67 µg/mL
CC1=C(C(=O)Nc2ccccc2)C(c2ccccc2Br)N=C(Nc2nc3ccccc3o2)N1 (stereo not given) | < 1 µg/mL
O=C(Nc1nc(-c2ccccc2)cs1)c1ccncc1NS(=O)(=O)c1cccc(Cl)c1 | < 1 µg/mL
CC(=O)Nc1ccc(N[S+](=O)([O-])c2cccc(NC(=O)c3[nH]c(C)c(C(C)=O)c3C)c2)cc1 | 18.3 µg/mL (≈ 39 µM)
Cc1ccc(-c2nc(NCC(=O)Nc3cccc(C(=O)O)c3)c3ccccc3n2)cc1 | > 61 µg/mL
COC(=O)[C@@]12OC[C@]34[C@H]([C@@H](O)[C@@H]1O)[C@@]1(C)CC(=O)C(O)=C(C)[C@@H]1C[C@H]3OC(=O)[C@H](OC(=O)/C=C(\C)C(C)C)[C@@H]24 | > 81 µg/mL
Cc1cccc(N2CCN(c3nc4ccccc4c4nnc(C)n34)CC2)c1C | < 1 µg/mL
CCOC(=O)c1ccc(NC(=O)N2Cc3[nH]cnc3C[C@H]2c2nc(C(C)C)no2)cc1 | > 63 µg/mL
CCCCCOc1ccccc1/C(=C\SC)n1ccnc1 | < 1 µg/mL
Cc1cc(Oc2ccc(N)cn2)ccc1Cl | > 35 µg/mL
O=c1cc(-c2ccccc2)oc2cc(O)cc(O)c12 | < 1 µg/mL
CC(C)(C)c1ccc(OCc2nn3c(-c4ccncc4)nnc3s2)cc1 | < 1 µg/mL
NC(=O)C1CCN(c2ncc(Br)cn2)CC1 | > 42 µg/mL
CC1CCN(S(=O)(=O)c2ccc3c(c2)C(C)(C)C(=O)N3CC(=O)NCc2ccco2)CC1 | 34.2 µg/mL (≈ 74.4 µM)
COc1ccc(OC)c(-c2nc3c(C#N)c[nH]n3c2NC2CCCCC2)c1 | 12.2 µg/mL (≈ 33.5 µM)
CCc1ccc(NC(=O)c2[nH]c(C)c(C(C)=O)c2C)cc1[S+](=O)([O-])N1CCCCCC1 | 1.19 µg/mL (≈ 2.67 µM)

SMILES | solubility kinetic
O=C(Nc1nc(-c2ccccc2)cs1)c1ccncc1NS(=O)(=O)c1ccc(C(F)(F)F)cc1 | < 1 µg/mL
NC(=O)C1CCN(c2ncc(Br)s2)CC1 | 32.3 µg/mL (≈ 111 µM)
Cc1ccccc1C(=O)Nc1ccc2c(c1)CCCN2C(=O)c1cccs1 | 7.15 µg/mL (≈ 19 µM)
C#CCNC(=O)c1nc(-c2cccnc2)c2ccccn12 | > 61 µg/mL
CCN(CC)CCOc1ccc(Cc2ccccc2)cc1 | 8.35 µg/mL (≈ 29.5 µM)
O=C(O)c1cccc(-n2cccc2/C=C2/NC(=O)N(c3cccc(Cl)c3)C2=O)c1 | 32.7 µg/mL (≈ 80.1 µM)
COc1cccc(CNc2ccc(S(=O)(=O)Nc3nc(C)cs3)cc2)c1O | 42.7 µg/mL (≈ 105 µM)
O=C(Nc1ccc([S+](=O)([O-])Nc2nccs2)cc1)c1ccccn1 | 7.05 µg/mL (≈ 19.6 µM)
CN(C)c1cccc(-c2ccnc(N3CCC(C(N)=O)CC3)n2)c1 | 39.1 µg/mL (≈ 120 µM)
Cc1ccnc(NC(=S)N2CCN(c3cccc(C(F)(F)F)c3)C[C@@H]2C)c1 | 3.88 µg/mL (≈ 9.84 µM)
O=C(O)c1ccc(Nc2nc(-c3cc4ccccc4oc3=O)cs2)cc1O | 11.7 µg/mL (≈ 30.7 µM)
O=C1NC(=S)NC(=O)C1=Cc1cccn1-c1ccc(O)cc1 | 37 µg/mL (≈ 118 µM)
Cc1ccnc(NC(=S)N2CCN(c3cc(F)cc(Cl)c3)CC2)c1 | < 1 µg/mL
Cc1cn(CCN2CCN(c3ccccc3-c3cc(C#N)cc(C(=O)NCCCN4CCCC4)c3)CC2)c2ccccc12 | 14.6 µg/mL (≈ 25.4 µM)
Cc1sc(NC(=O)Cc2ccc3c(c2)OCO3)nc1-c1ccc2c(c1)CCN2C(=O)c1ccccc1Cl | < 1 µg/mL
O=C(Nc1cncc(Cc2ccccc2)c1)c1ccc(-c2cccc([N+](=O)[O-])c2)o1 | < 1 µg/mL
O=C(Nc1nc(-c2ccccc2)cs1)c1ccncc1NS(=O)(=O)c1ccc(N2CCCC2=O)cc1 | 56.9 µg/mL (≈ 110 µM)
O=C(NC1CCCc2c1[nH]c1ccccc21)c1ccccc1 (stereo not given) | 7.97 µg/mL (≈ 27.4 µM)
CC1(COc2ccc3c(c2)ncn3-c2ccc3cccc(N4CCC(N)CC4)c3n2)COC1 | 36.8 µg/mL (≈ 82.9 µM)
O=C(CCS(=O)(=O)c1nc(-c2cccs2)cc(C(F)(F)F)n1)Nc1ccc(OC(F)(F)F)cc1 | 11.5 µg/mL (≈ 21.8 µM)
C=C1[C@@H](C)C2[C@H](Cc3ccccc3)NC(=O)[C@@]23C(/C=C/C[C@H](C)C[C@@](C)(O)/C=C/[C@@H]3OC(C)=O)[C@@H]1O (stereo not given in full) | 1.9 µg/mL (≈ 3.85 µM)
O=C(NCCCN1CCCC1=O)c1ccc(-c2ncc3cnc(-c4ccccc4)cn23)cc1 | 21.9 µg/mL (≈ 49.9 µM)
Cc1cc(NC(=O)c2ccc(NC(=O)Cc3ccc(Cl)c(Cl)c3)cc2)no1 | 1.43 µg/mL (≈ 3.55 µM)
O=S(=O)(c1ccc2ccccc2c1)N1CCN(c2nc(-c3cccs3)nc3ccccc23)CC1 | < 1 µg/mL

SMILES | solubility kinetic
Cc1ccc(S(=O)(=O)Nc2cnccc2C(=O)Nc2nc(-c3ccc(Cl)c(Cl)c3)cs2)cc1 | 0.578 µg/mL (≈ 1.11 µM)
Cc1ccc(S(=O)(=O)Nc2ccccc2C(=O)Nc2ccc(-c3ccccc3)cc2)cc1 | < 1 µg/mL
Cc1cc(Cl)ccc1COc1ccnn1-c1cc(C(=O)O)ccn1 | > 51 µg/mL
Cc1ccc([S+](=O)([O-])n2cc(-c3ccc(-c4ccccc4)cc3)c3ccccc32)cc1 | < 1 µg/mL
CN(C)c1cccc(-c2ncc(F)c(N3CCC(C(N)=O)CC3)n2)c1 | > 51 µg/mL
C[C@@]1(C(=O)Nc2ccc(F)nc2)CCCN1c1nc(Nc2cc(C3CC3)[nH]n2)c2cccn2n1 | 31.1 µg/mL (≈ 67.4 µM)
N#Cc1c(NC(=O)c2cccc3ccccc23)sc2c1CCCC2 | < 1 µg/mL
Cn1ncnc1[C@H]1c2n[nH]c(=O)c3cc(F)cc(c23)N[C@@H]1c1ccc(F)cc1 | > 38 µg/mL
CCCCC(C)/C=C(C)/C=C(\C)C(=O)NC1=CC(O)(/C=C/C=C/C=C/C(=O)NC2=C(O)CCC2=O)C2OC2C1=O (stereo not given) | > 81 µg/mL
CC(C)(C)c1cc(NC(=O)Nc2ccc(-c3cn4c(n3)sc3cc(OCCN5CCOCC5)ccc34)cc2)no1 | < 1 µg/mL
O=S(=O)(Nc1ccccc1)c1ccc(NCc2cccc(Cl)c2O)cc1 | 2.64 µg/mL (≈ 6.8 µM)
Fc1cc(Nc2nc(-c3ccncc3)nc3ccccc23)ccc1N1CCNCC1 | 4.02 µg/mL (≈ 10 µM)
Cc1ccc2oc3c(c(=O)c2c1)C(c1cccc(O)c1)N(CCCN1CCOCC1)C3=O (stereo not given) | > 64 µg/mL
COc1ccnc(NC(=S)N2CCN(c3cccc(C(F)(F)F)n3)CC2)c1 | < 1 µg/mL
COc1cccc(C(=O)Nc2nc(-c3nnn(-c4cccc(Cl)c4C)c3C)ns2)c1 | < 1 µg/mL
O=C(NCc1cccc(C(F)(F)F)c1)c1ccc(CN2CCCCC2)cc1 | 46.6 µg/mL (≈ 124 µM)
COc1ccccc1CN1CCNc2cc(Nc3ccccc3)ncc2C1 | > 80 µg/mL
COc1ccc(C2=Nc3ccc(C)cc3C(c3ccccc3)N2CC(=O)NN)cc1 (stereo not given) | > 59 µg/mL
O=C(O)c1ccnc(-c2cc(C(=O)NCCc3ccccc3)ccn2)c1 | > 51 µg/mL
COC(=O)c1ccc2nc(NC3=NC(c4[nH]ncc4Cl)C4=C(CCCC4=O)N3)oc2c1 (stereo not given) | 1.62 µg/mL (≈ 3.69 µM)
CC(C)CN(C[C@@H](O)[C@H](Cc1ccccc1)NC(=O)O[C@@H]1CO[C@H]2OCC[C@H]21)S(=O)(=O)c1ccc(N)cc1 | > 81 µg/mL
Cc1noc(C)c1-c1csc(N2CCC(C(N)=O)CC2)n1 | > 45 µg/mL
Cc1ccc(S(=O)(=O)Nc2cc(F)c(F)cc2C(=O)Nc2nc(-c3ccccc3)cs2)cc1 | < 1 µg/mL
